From article PMC4503722, “Novel Phenotypic Outcomes Identified for a Public Collection of Approved Drugs from a Publicly Accessible Panel of Assays” (PLoS ONE, 2015)

Tests used:
[1] = system: alkaline phosphatase (ALP) activity in C2C12 cells; assay type: cell-based; conditions: concentration response; for WntCondMedia_Alk Phos C2C12 IC50/EC50: assay number 6
[2] = system: nuclear β-catenin in C2C12 cells; assay: cells; assay type: cell-based; conditions: concentration response; for WntCondMedia_bCatenin C2C12 IC50/EC50: assay number 5
[3] = system: endothelial tube formation in co-cultures of ECFCs and ADSCs treated with VEGF; assay: cells; assay type: cell-based, human
HeLa cells = assay: cells; assay type: cell-based
[4] = system: ECFC/ADSC co-culture cell nuclei number

| SMILES | WntCondMedia_Alk Phos C2C12 IC50/EC50 [1] [µM] | WntCondMedia_bCatenin C2C12 IC50/EC50 [2] [µM] | VEGF_ADSC\ECFC Angio CD31 TubeArea IC50/EC50 [3] [µM] | VEGF_ADSC\ECFC Angio Hoechst NucArea IC50/EC50 [4] [µM] | further results |
| --- | --- | --- | --- | --- | --- |
| CCCCCCCCCCCCCCC[C@H](O)[C@@H](N)CO [NCGC00015362-05] | > 20 | > 20 | – | – | – |
| CCCCc1ccc2nc(NC(=O)OC)[nH]c2c1 [NCGC00016706-07] | – | – | – | – | IC50/EC50, VEGF_ADSC\ECFC Angio CD31 TubeArea (assay number 2) [3]: 0.053 µM; IC50/EC50, Hela CellCycMod PI 2N (assay number 14) (HeLa cells; 2N): 0.0104 µM; IC50/EC50, Hela CellCycMod PI 4N (assay number 16) (HeLa cells; 4N): 0.01062 µM; IC50/EC50, Hela CellCycMod PI Cell Number (assay number 18) (HeLa cells; Cell Number): 0.00566 µM; IC50/EC50, Hela CellCycMod PI MI (assay number 17) (HeLa cells; MI): 0.00717 µM; IC50/EC50, Hela CellCycMod PI S Phase (assay number 15) (HeLa cells; S Phase): > 10 µM; IC50/EC50, WntCondMedia_Alk Phos C2C12 (assay number 6) [1]: 0.0682 µM; IC50/EC50, VEGF_ADSC\ECFC Angio Hoechst NucArea (assay number 3) [4]: > 10 µM; IC50/EC50, WntCondMedia_bCatenin C2C12 (assay number 5) [2]: 0.0336 µM |
| CN[C@@H]1C[C@@H](c2ccc(Cl)c(Cl)c2)c2ccccc21 [NCGC00025223-04] | > 20 | > 20 | > 10 | > 10 | – |
| Cl.O[C@@H](c1cc(C(F)(F)F)nc2c(C(F)(F)F)cccc12)[C@H]1CCCCN1 [NCGC00161831-04] | > 20 | > 20 | > 10 | 8.609 | – |
| Cc1cc(CC(C)CC(C)(C)C)n(O)c(=O)c1 (stereo not shown) [NCGC00167586-03] | > 20 | 0.5913 | – | – | Hela CellCycMod PI 2N IC50/EC50 (HeLa cells; assay number 14, 2N): > 10 µM; Hela CellCycMod PI S Phase IC50/EC50 (HeLa cells; assay number 15, S phase): > 10 µM; Hela CellCycMod PI 4N IC50/EC50 (HeLa cells; assay number 16, 4N): > 10 µM; Hela CellCycMod PI MI IC50/EC50 (HeLa cells; assay number 17, MI): > 10 µM; Hela CellCycMod PI Cell Number IC50/EC50 (HeLa cells; assay number 18, cell number): 0.1332 µM |
| COc1cc([C@@H]2c3cc4c(cc3[C@@H](O[C@@H]3O[C@@H]5CO[C@@H](C)O[C@@H]5[C@H](O)[C@@H]3O)[C@H]3COC(=O)[C@H]23)OCO4)cc(OC)c1O [NCGC00179504-05] | > 20 | > 20 | 0.1091 | 0.9666 | – |
| Clc1cc(Cl)c(OCC#CI)cc1Cl [NCGC00181134-02] | > 20 | > 20 | > 10 | > 10 | – |
